Experiments:
Assay type in all cases: cell-based
[1] = test system: 3T1-L1 adipocytes; assay: glucose uptake (glucose transport) in differentiated adipocytes; details: 1, 10 μM; compared with ginsenosides Rg1, Rg3, Rb1; FIG. 16
[2] = test system: aP2 (Adipocyte protein 2); assay: aP2 adipocyte marker gene expression (qPCR)
Method: The adipocyte cell 3T3-L1 purchased from the International Center for Biological Resources (ATCC) were placed in Dulbecco's Modified Eagle's Medium (Sigma) to which 10% fetal bovine serum (Hyclone) and 1% penicillin/streptomycin (Sigma) were added, and cultured in a 5% CO2 incubator. In order to differentiate preadipocytes into adipocytes, the cells were filled in a culture plate and cultured. After 48 hours, the cells were replaced with Dulbecco's modified eagle medium (DMEM) to which 10% of fetal bovine serum (Hyclone), 0.5 mM of 3-isobutyl-1-methylxanthine (Sigma), 1 μM of dexamethasone (Sigma), 5 μg/ml of insulin (Sigma), 1% of penicillin/streptomycin (Sigma) were added and further cultured for 48 hours. During 48 hours of culture, seven types of ginsenoside reagents (GS #01-GS #06, GS #10) extracted from Ginseng seeds were treated at 10 μM each to affect adipocyte differentiation. […]
After the differentiation of adipocytes in the same manner as above, the expressions of PPARγ (Peroxisome proliferator-activated receptor gamma), aP2 (Adipocyte protein 2) and CD36 were observed as adipocyte marker genes. […] Bio-Rad's CFX96 real-time quantitative PCR (qPCR) instrument was used to quantify the expression levels of each gene. […]

[3] = test system: HepG2 cells; assay: triglyceride accumulation in hepatocytes (Triglyceride Assay Kit)
From the text: In addition, in order to investigate whether inhibition of the expression of fat synthesis-related genes by ginsenoside derived from Ginseng seed may be involved in actual fat synthesis and accumulation, HepG2 cells were used to treat seven ginsenosides (GS #01-GS #06, GS #10; […]) and the control group (fenofibrate, FF) in the same manner as above, and then the Triglyceride Assay Kit (Abcam) was used to measure the amount of triglyceride (TG) accumulated in hepatocytes.

[4] = test system: adipocyte cell 3T3-L1; assay: fat accumulation in adipocytes (Oil-red O staining)
Method: The adipocyte cell 3T3-L1 purchased from the International Center for Biological Resources (ATCC) were placed in Dulbecco's Modified Eagle's Medium (Sigma) to which 10% fetal bovine serum (Hyclone) and 1% penicillin/streptomycin (Sigma) were added, and cultured in a 5% CO2 incubator. In order to differentiate preadipocytes into adipocytes, the cells were filled in a culture plate and cultured. After 48 hours, the cells were replaced with Dulbecco's modified eagle medium (DMEM) to which 10% of fetal bovine serum (Hyclone), 0.5 mM of 3-isobutyl-1-methylxanthine (Sigma), 1 μM of dexamethasone (Sigma), 5 μg/ml of insulin (Sigma), 1% of penicillin/streptomycin (Sigma) were added and further cultured for 48 hours. […] As a control to confirm the effect of inhibiting adipocyte differentiation, 20 μM of bisphenol A diglycidyl ether (BADGE) (Sigma), a PPARγ (Peroxisome proliferator-activated receptor gamma) antagonist, was used. Thereafter, the cells were further cultured for 10 days while being replaced with a medium containing 10% FBS and 5 μg/ml insulin and 1% penicillin/streptomycin at two-day intervals to induce adipocyte differentiation.
Differentiated adipocytes treated with each of the seven types of ginsenosides were fixed with formaldehyde solution (Sigma), stained with Oil-red O staining solution (Sigma), and then dissolved with isopropanol (Sigma), and then the amount of the stained fat was quantified by measuring at 490 nm absorbance.

[5] = test system: LDL receptor (LDLR); assay: LDL receptor gene expression in HepG2 (qPCR); details: 24 hours

## CC1(C)C(=O)CC[C@@]2(C)C1[C@@H](O[C@H]1OC(CO)[C@H](O)C(O)C1O[C@H]1OC(CO)[C@H](O)C(O)C1O)C[C@]1(C)C2C[C@@H](O)C2C([C@]3(C)CC[C@H](C(C)(C)O)O3)CC[C@]21C (stereo partly drawn) [GS #10, (20S,24R)-6-O-β-D-glucopyranosyl(1→2)-β-D-glucopyranoside-dammar-3-one-20,24-epoxy-6a,12b,25-triol]
[1]
  glucose transport ability: much superior
[2]; 1 μM and 10 μM, compared with Rg1, Rg3, Rb1, FIG. 40
  adipocyte differentiation inhibition, aP2 gene expression: far superior in adipocyte differentiation inhibition
[2]; 10 μM, FIG. 36
  adipocyte differentiation inhibition, aP2 gene expression: more effective in inhibiting the adipocyte differentiation
[3]; 10 μM, HepG2, FIG. 21
  inhibitory effect of lipid (triglyceride) accumulation in hepatocytes: most excellent inhibitory effect of lipid accumulation in hepatocytes
[3]; 1, 10 μM, compared with Rg1, Rg3, Rb1, FIG. 26
  inhibition of triglyceride accumulated in hepatocytes: far superior in lipid metabolism inhibitory effect
[4]; 1 μM and 10 μM, compared with Rg1, Rg3, Rb1, FIG. 38
  fat accumulation inhibitory effect in adipocytes: far superior in adipocyte differentiation inhibition and fat accumulation inhibitory effect
[4]; 10 μM during 48 hours of differentiation, FIG. 34
  fat accumulation inhibitory effect in adipocytes: most excellent fat accumulation inhibitory effect
[5]; 10 μM, HepG2, FIG. 29
  increase of LDLR expression level compared to the control (−): more than 2 times
[5]; 1 and 10 μM, compared with Rg1, Rg3, Rb1, FIG. 32
  promotion of intracellular transport (LDLR expression): most effective in inhibiting cholesterol synthesis and promoting intracellular transport
